Measurements: ChEMBL document CHEMBL1649066, “An imidazopiperidine series of CCR5 antagonists for the treatment of HIV: the discovery of N-{(1S)-1-(3-fluorophenyl)-3-[(3-endo)-3-(5-isobutyryl-2-methyl-4,5,6,7-tetrahydro-1H-imidazo[4,5-c]pyridin-1-yl)-8-azabicyclo[3.2.1]oct-8-yl]propyl}acetamide (PF-232798)” (J Med Chem, 2011)
Activity calls are given as the source filed them. The rule behind the calls is not given here.

Columns and labels:
[1] = test system: Human immunodeficiency virus 1; assay: Antiviral activity against maraviroc-resistant HIV1 isolate CC185 at 100 times IC90 concentration; assay type: functional, organism-based
[2] = test system: Human immunodeficiency virus 1; assay: Antiviral activity against maraviroc-resistant HIV1 isolate CC185 at IC90 concentration; assay type: functional, organism-based
[3] = test system: Human immunodeficiency virus 1; assay: Antiviral activity against maraviroc-resistant HIV1 isolate CC185 at 10 times IC90 concentration; assay type: functional, organism-based
[4] = Octanol-buffer partition coefficient, log D of the compound
[5] = Apparent permeability from basolateral to apical side of human Caco2 cells; conditions: Caco-2
[6] = Apparent permeability from apical to basolateral side of human Caco2 cells; conditions: Caco-2
[7] = Intrinsic clearance in human liver microsomes assessed per mg of protein; assay type: ADME, Microsome
[8] = target: hERG (KCNH2) (Homo sapiens, UniProt Q12809); assay: in vitro; conditions: HEK293 cells that express human ERG, probe [3H]-dofetilide
Chain of hERG (KCNH2) (Q12809 whole entry): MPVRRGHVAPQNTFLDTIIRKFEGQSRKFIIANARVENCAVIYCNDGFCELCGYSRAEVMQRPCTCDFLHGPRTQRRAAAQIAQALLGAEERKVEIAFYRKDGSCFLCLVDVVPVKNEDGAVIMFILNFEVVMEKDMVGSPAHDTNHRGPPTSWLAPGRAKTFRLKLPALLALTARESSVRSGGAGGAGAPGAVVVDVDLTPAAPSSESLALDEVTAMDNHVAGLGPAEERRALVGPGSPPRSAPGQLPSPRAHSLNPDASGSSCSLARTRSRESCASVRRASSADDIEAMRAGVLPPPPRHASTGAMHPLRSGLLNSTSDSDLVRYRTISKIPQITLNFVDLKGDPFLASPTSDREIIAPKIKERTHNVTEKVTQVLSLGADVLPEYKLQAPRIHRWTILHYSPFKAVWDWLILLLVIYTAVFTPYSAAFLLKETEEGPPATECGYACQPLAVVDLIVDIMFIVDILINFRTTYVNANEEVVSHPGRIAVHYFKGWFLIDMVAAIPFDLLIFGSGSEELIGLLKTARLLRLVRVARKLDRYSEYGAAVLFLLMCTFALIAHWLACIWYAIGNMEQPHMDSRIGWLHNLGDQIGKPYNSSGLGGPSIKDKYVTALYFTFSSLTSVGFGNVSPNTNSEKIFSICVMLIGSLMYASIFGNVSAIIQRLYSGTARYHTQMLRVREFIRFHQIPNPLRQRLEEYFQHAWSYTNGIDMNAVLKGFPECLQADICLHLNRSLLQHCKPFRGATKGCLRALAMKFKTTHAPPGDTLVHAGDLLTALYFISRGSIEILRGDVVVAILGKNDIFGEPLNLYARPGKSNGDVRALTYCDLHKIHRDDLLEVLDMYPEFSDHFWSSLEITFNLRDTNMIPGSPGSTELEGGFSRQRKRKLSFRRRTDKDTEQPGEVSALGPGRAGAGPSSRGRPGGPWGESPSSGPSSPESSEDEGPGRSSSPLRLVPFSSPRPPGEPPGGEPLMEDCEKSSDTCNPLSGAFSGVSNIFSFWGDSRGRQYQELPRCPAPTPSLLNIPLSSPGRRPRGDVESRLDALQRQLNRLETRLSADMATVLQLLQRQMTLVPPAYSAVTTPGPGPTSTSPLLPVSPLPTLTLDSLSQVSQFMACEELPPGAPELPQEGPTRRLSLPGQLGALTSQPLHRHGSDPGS
Description: Displacement of [3H]-dofetilide from human ERG expressed in HEK293 cells at 300 nM

SMILES: CC(=O)N1CC(C(=O)N[C@@H](CCN2[C@@H]3CC[C@H]2C[C@@H](n2c(C)nc4ccccc42)C3)c2ccccc2)C1
- Activity [1]: Active
- Activity [2]: Active
- Activity [3]: Active

SMILES: Cc1nnc(C2CC2)n1[C@H]1C[C@H]2CC[C@@H](C1)N2CC[C@H](NC(=O)C1CCC(F)(F)CC1)c1ccccc1
- Activity [1]: inactive
- Activity [2]: inactive
- Activity [3]: inactive

SMILES: Cc1nc2ccccc2n1[C@H]1C[C@H]2CC[C@@H](C1)N2CC[C@H](NC(=O)C1CCOCC1)c1ccccc1
- Activity [1]: Active
- Activity [2]: Active
- Activity [3]: Active

SMILES: CC(=O)N[C@@H](CCN1[C@@H]2CC[C@H]1C[C@@H](n1c(C)nc3c1CN(C(=O)OC(C)C)CC3)C2)c1ccccc1
- logD [4]: 2.7
- Papp B→A [5]: 28 ×10⁻⁶ cm/s
- Papp A→B [6]: 5 ×10⁻⁶ cm/s
- microsomal CLint [7]: 44 µL/min/mg
- inhibition at 0.3 µM [8]: 75%

SMILES: CC(=O)N[C@@H](CCN1[C@@H]2CC[C@H]1C[C@@H](n1c(C)nc3c1CCN(C(=O)C(C)(C)C)C3)C2)c1cccc(F)c1
- logD [4]: 2.8
- Papp B→A [5]: 24 ×10⁻⁶ cm/s
- Papp A→B [6]: 1 ×10⁻⁶ cm/s
- microsomal CLint [7]: 35 µL/min/mg

SMILES: CCC(=O)N1CCc2nc(C)n([C@H]3C[C@H]4CC[C@@H](C3)N4CC[C@H](NC(C)=O)c3ccccc3)c2C1
- logD [4]: 1.2
- Papp B→A [5]: 17 ×10⁻⁶ cm/s
- Papp A→B [6]: < 1 ×10⁻⁶ cm/s
- microsomal CLint [7]: < 7 µL/min/mg
- inhibition at 0.3 µM [8]: 13%

SMILES: CC(=O)N[C@@H](CCN1[C@@H]2CC[C@H]1C[C@@H](n1c(C)nc3c1CN(S(C)(=O)=O)CC3)C2)c1ccccc1
- logD [4]: 0.9
- microsomal CLint [7]: 24 µL/min/mg
- inhibition at 0.3 µM [8]: 10%

SMILES: CC(=O)N[C@@H](CCN1[C@@H]2CC[C@H]1C[C@@H](n1c(C)nc3c1CN(C(C)=O)CC3)C2)c1ccccc1
- logD [4]: 0.6
- Papp B→A [5]: 5 ×10⁻⁶ cm/s
- Papp A→B [6]: < 1 ×10⁻⁶ cm/s
- microsomal CLint [7]: < 7 µL/min/mg
- inhibition at 0.3 µM [8]: 0%

SMILES: CC(=O)N[C@@H](CCN1[C@@H]2CC[C@H]1C[C@@H](n1c(C)nc3c1CN(C)CC3)C2)c1ccccc1
- logD [4]: 0.4
- Papp B→A [5]: 9 ×10⁻⁶ cm/s
- Papp A→B [6]: < 1 ×10⁻⁶ cm/s
- microsomal CLint [7]: < 7 µL/min/mg
- inhibition at 0.3 µM [8]: 0%

SMILES: CC(=O)N[C@@H](CCN1[C@@H]2CC[C@H]1C[C@@H](n1c(C)nc3c1CCN(C(C)=O)C3)C2)c1cccc(F)c1
- logD [4]: 1.4
- Papp B→A [5]: 6 ×10⁻⁶ cm/s
- Papp A→B [6]: < 1 ×10⁻⁶ cm/s
- microsomal CLint [7]: < 8 µL/min/mg

SMILES: COC(=O)N[C@@H](CCN1[C@@H]2CC[C@H]1C[C@@H](n1c(C)nc3c1CN(C(=O)OC)CC3)C2)c1cccc(F)c1
- logD [4]: 2.6
- Papp B→A [5]: 17 ×10⁻⁶ cm/s
- Papp A→B [6]: 17 ×10⁻⁶ cm/s
- microsomal CLint [7]: 92 µL/min/mg
- inhibition at 0.3 µM [8]: 69%

SMILES: COC(=O)N[C@@H](CCN1[C@@H]2CC[C@H]1C[C@@H](n1c(C)nc3c1CN(C(C)=O)CC3)C2)c1ccccc1
- logD [4]: 1.4
- Papp B→A [5]: 27 ×10⁻⁶ cm/s
- Papp A→B [6]: 4 ×10⁻⁶ cm/s
- microsomal CLint [7]: 42 µL/min/mg
- inhibition at 0.3 µM [8]: 57%

SMILES: Cc1nnc(C(C)C)n1[C@H]1C[C@H]2CC[C@@H](C1)N2CC[C@H](NC(=O)C1CCC(F)(F)CC1)c1cccc(F)c1
- Activity [1]: inactive
- Activity [2]: inactive
- Activity [3]: inactive

SMILES: COC[C@@H](c1ccc(C(F)(F)F)cc1)N1CCN(C2(C)CCN(C(=O)c3c(C)ncnc3C)CC2)C[C@@H]1C
- Activity [1]: Active
- Activity [2]: Active
- Activity [3]: Active

SMILES: CCCC(=O)N1CCc2c(nc(C)n2[C@H]2C[C@H]3CC[C@@H](C2)N3CC[C@H](NC(C)=O)c2cccc(F)c2)C1
- logD [4]: 2.2
- Papp B→A [5]: 26 ×10⁻⁶ cm/s
- Papp A→B [6]: 1 ×10⁻⁶ cm/s
- microsomal CLint [7]: 25 µL/min/mg

SMILES: CC(=O)N[C@@H](CCN1[C@@H]2CC[C@H]1C[C@@H](n1c(C)nc3c1CN(C(C)C)CC3)C2)c1ccccc1
- logD [4]: 0.8
- microsomal CLint [7]: 46 µL/min/mg

SMILES: CCCCN1C(=O)[C@@H]([C@H](O)C2CCCCC2)NC(=O)C12CCN(Cc1ccc(Oc3ccc(C(=O)O)cc3)cc1)CC2
- Activity [1]: Active
- Activity [2]: Active
- Activity [3]: Active
